Here are results for 17 molecules from patent US20100010035A1, “Novel Dual Action Receptors Antagonists (Dara) at the Ati and Eta Receptors” (priority 2006, published 2010).

For one assay, the target named is T1, human AT1 receptor (Homo sapiens, UniProt P30556).
T1 construct: CHO cell stably over-expressing the full length human AT1 receptor; expressed in transfected cells
T1 sequence (P30556 1-359): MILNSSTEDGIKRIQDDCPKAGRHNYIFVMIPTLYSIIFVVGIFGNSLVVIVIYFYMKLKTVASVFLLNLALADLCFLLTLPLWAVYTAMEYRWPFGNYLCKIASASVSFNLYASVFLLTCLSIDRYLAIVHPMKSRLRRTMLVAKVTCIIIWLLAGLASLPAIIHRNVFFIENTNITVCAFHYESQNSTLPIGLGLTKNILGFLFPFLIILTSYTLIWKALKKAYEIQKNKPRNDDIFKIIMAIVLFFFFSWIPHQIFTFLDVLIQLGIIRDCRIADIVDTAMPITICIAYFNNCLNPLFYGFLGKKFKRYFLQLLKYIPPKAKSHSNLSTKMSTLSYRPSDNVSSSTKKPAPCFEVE
The assay is described as follows: AT1 functional assay (FLIPR Ca efflux, Angiotensin-II at EC80). In kind it is cell-based. The note with it: CHO cells over-expressing full length human AT1 receptor; Angiotensin-II as agonist at EC80. Here is the method: CHO cell stably over-expressing the full length human AT1 receptor was cultured in DMEM (Gibco) with 10% FCS (Hyclone) and selection maintained using 0.5 mg/ml G418 (Gibco). Cell at 70% confluence were trypsnised, resuspended in media and counted. 20,000 cells/well were plated into black polystyrene 384-well plates with transparent bottoms and allowed 16 hours to adhere. The cells were loaded with Flou-4 (TEFLABS, USA) dye in HBSS (Gibco) for 1 hour and then washed in HBSS and 0.6 μl of diluted compounds in DMSO added to the cells in 30 μd of HBSS in Multimek liquid handling system (Beckman, USA). The cells were then placed in the Fluorometric Imaging Plate Readers (FLIPR, Molecular Devices, USA) and 20 μl of Angiotensin-II peptide as agonist (at EC80) in HBSS was added in the instrument.
(§1) The Ca efflux was followed for 2 mins and the maximum height of the peak was measured at various compound concentrations and plotted according to the equation
(§2) and IC50 estimated wherein A is the bottom plateau of the curve i.e. the final minimum y value B is the top of the plateau of the curve i.e. the final maximum y value C is the x value at the middle of the curve. This represents the log EC50 value when A+B=100 D is the slope factor. x is the original known x values. y is the original known y values.

Another assay has as its target T2, human ETA receptor (Homo sapiens, UniProt P25101).
T2 construct: CHO cell stably over-expressing the full length human ETA receptor; expressed in transfected cells
T2 sequence (P25101 21-427): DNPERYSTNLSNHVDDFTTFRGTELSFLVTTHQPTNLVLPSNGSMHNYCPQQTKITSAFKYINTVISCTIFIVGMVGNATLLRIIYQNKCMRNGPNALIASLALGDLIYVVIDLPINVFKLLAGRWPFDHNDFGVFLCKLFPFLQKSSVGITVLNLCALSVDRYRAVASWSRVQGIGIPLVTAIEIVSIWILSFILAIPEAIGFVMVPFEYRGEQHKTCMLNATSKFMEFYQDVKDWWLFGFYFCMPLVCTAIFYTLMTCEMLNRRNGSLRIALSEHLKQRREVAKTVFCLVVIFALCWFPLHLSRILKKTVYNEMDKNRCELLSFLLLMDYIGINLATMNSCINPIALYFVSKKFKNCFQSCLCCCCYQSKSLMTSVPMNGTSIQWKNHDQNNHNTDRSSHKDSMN
The assay is described as follows: ETA functional assay (FLIPR Ca efflux, Endothelin-1 at EC80). The note with it: CHO cells over-expressing full length human ETA receptor; Endothelin-1 as agonist at EC80. The format is cell-based. Here is the method: CHO cell stably over-expressing the full length human ETA receptor was cultured in DMEM (Gibco) with 10% FCS (Hyclone) and selection maintained using 0.5 mg/ml G418 (Gibco). Cell at 70% confluence were trypsnised, resuspended in media and counted. 20,000 cells/well were plated into black polystyrene 384-well plates with transparent bottoms and allowed 16 hours to adhere. The cells were loaded with Flou-4 (TEFLABS, USA) dye in BSS (Gibco) for 1 hour and then washed in HBSS and 0.6 μl of diluted compounds in DMSO added to the cells in 30 μl of HBSS in Multimek liquid handling system (Beckman, USA). The cells were then placed in the Fluorometric Imaging Plate Readers (FLIPR, Molecular Devices, USA) and 20 μl of Endothelin-1 peptide as agonist in HBSS (at EC80) was added in the instrument.
as §1, §2

The term IC50 denotes the concentration needed to halve the response being measured. Lower therefore signals inhibition by little substance. Take `Cc1cc2c(c(C)n1)c(-c1ccc(Cl)cc1)nn2Cc1ccc(-c2cc(C)sc2S(=O)(=O)Nc2noc(C)c2C)c(C)c1` [Example 37, 3-{4-[3-(4-Chloro-phenyl)-4,6-dimethyl-pyrazolo[4,3-c]pyridin-1-ylmethyl]-2-methyl-phenyl}-5-methyl-thiophene-2-sulfonic acid (4,5-dimethyl-isoxazol-3-yl)-amide]: the half-maximal inhibitory concentration (IC50) at human AT1 receptor turned out to be 153 nM; at human ETA receptor, 407 nM.

For the molecule `CCc1cc2c(ccc(=O)n2Cc2ccc(-c3cc(C)sc3S(=O)(=O)Nc3noc(C)c3C)c(F)c2)c(CC)n1` [Example 35, 3-[4-(5,7-Diethyl-2-oxo-2H-[1,6]naphthyridin-1-ylmethyl)-2-fluoro-phenyl]-5-methyl-thiophene-2-sulfonic acid (4,5-dimethyl-isoxazol-3-yl)-amide], the figures for the half-inhibitory concentration (IC50) at human AT1 receptor and on human ETA receptor were 27.6 nM and 2570 nM, respectively.

`CCc1cc(OCc2ccc(-c3ccsc3S(=O)(=O)Nc3noc(C)c3C)cc2)c(C(=O)c2ccccc2)c(C)n1` [Example 4, 3-[4-(3-Benzoyl-6-ethyl-2-methyl-pyridin-4-yloxymethyl)-phenyl]-thiophene-2-sulphonic acid (4,5-dimethyl-isoxazol-3-yl)-amide]: the IC50 was 29 nM on human AT1 receptor and 6200 nM on human ETA receptor.

In the case of `CCc1cc2c(c(Sc3ccccc3)cc(=O)n2Cc2ccc(-c3ccsc3S(=O)(=O)Nc3noc(C)c3C)cc2)c(CC)n1` [Example 3, 3-[4-(5,7-diethyl-2-oxo-4-phenylsulphanyl-2H-[1,6]naphthyridin-1 ylmethyl)-phenyl]-thiophene-2-sulphonic acid(4,5-dimethyl-isoxazol-3-yl)-amide], the 50% inhibitory concentration (IC50) on human AT1 receptor turned out to be 125 nM; on human ETA receptor it was 2920 nM.

In the case of `CCOCc1cc(Cn2nc(C)c3c(C)nc(CC)cc32)ccc1-c1cc(C)sc1S(=O)(=O)Nc1noc(C)c1C` [Example 6, 3-[2-Ethoxymethyl-4-(6-ethyl-3,4-dimethyl-pyrazolo[4,3-c]pyridine-1-ylmethyl)-phenyl]-5-methyl-thiophene-2-sulphonic acid(4,5-dimethyl-isoxazol-3-yl)-amide], the concentration for half-maximal inhibition (IC50) on human AT1 receptor amounted to 22.9 nM; on human ETA receptor, 562 nM.

With `CCc1cc2c(c(C)n1)c(-c1ccc(OC)cc1)nn2Cc1ccc(-c2cc(C)sc2S(=O)(=O)Nc2noc(C)c2C)c(C)c1` [Example 24, 3-{4-[6-Ethyl-3-(4-methoxy-phenyl)-4-methyl-pyrazolo[4,3-c]pyridin-1-ylmethyl]-2-methyl-phenyl}-5-methyl-thiophene-2-sulfonic acid (4,5-dimethyl-isoxazol-3-yl)-amide], the values for the half-inhibitory concentration (IC50) on human AT1 receptor and at human ETA receptor were 27.4 nM and 1890 nM, respectively.

Regarding `Cc1cc2c(cc(-c3ccccc3)c(=O)n2Cc2ccc(-c3cc(C)sc3S(=O)(=O)Nc3noc(C)c3C)c(C)c2)c(C)n1` [Example 29, 3-[4-(5,7-dimethyl-2-oxo-3-phenyl-2H-[1,6]naphthyridin-1-ylmethyl)-2-methyl-phenyl]-5-methyl-thiophene-2-sulfonic acid (4,5-dimethyl-isoxazol-3-yl)-amide], the IC50 at human AT1 receptor was found to be 15.9 nM; at human ETA receptor, 292 nM.

In the case of `Cc1cc2c(c(C)n1)c(-c1ccccc1)nn2Cc1ccc(-c2cc(C)sc2S(=O)(=O)Nc2noc(C)c2C)c(C)c1` [Example 18], the half-inhibitory concentration (IC50) stood at 7.98 nM on human AT1 receptor and 1430 nM at human ETA receptor.

With `CCc1cc2c(ccc(=O)n2Cc2ccc(-c3cc(C)sc3S(=O)(=O)Nc3onc(C)c3C)c(C)c2)c(CC)n1` [Example 30, 3-[4-(5,7-diethyl-2-oxo-2H-[1,6]naphthyridin-1-ylmethyl)-2-methyl-phenyl]-5-methyl-thiophene-2-sulfonic acid (3,4-dimethyl-isoxazol-5-yl)-amide], the IC50 at human AT1 receptor came to 18.9 nM; on human ETA receptor, 3320 nM.

As for `CCOCc1cc(Cn2nc(-c3cccs3)c3c(C)nc(CC)cc32)ccc1-c1cc(C)sc1S(=O)(=O)Nc1noc(C)c1C` [Example 22, 3-[2-Ethoxymethyl-4-(6-ethyl-4-methyl-3-thiophen-2-yl-pyrazolo[4,3-c]pyridin-1-ylmethyl)-phenyl]-5-methyl-thiophene-2-sulfonic acid (4,5-dimethyl-isoxazol-3-yl)-amide], the values for the half-maximal inhibitory concentration (IC50) on human AT1 receptor and at human ETA receptor were 25.2 nM and 454 nM, respectively.

In the case of `CCOCc1cc(Cn2nc(-c3ccc(OC)cc3)c3c(C)nc(CC)cc32)ccc1-c1cc(C)sc1S(=O)(=O)Nc1noc(C)c1C` [Example 23, 3-{2-Ethoxymethyl-4-[6-ethyl-3-(4-methoxy-phenyl)-4-methyl-pyrazolo[4,3-c]pyridin-1-ylmethyl]-phenyl}-5-methyl-thiophene-2-sulfonic acid (4,5-dimethyl-isoxazol-3-yl)-amide], the values for the IC50 on human AT1 receptor and at human ETA receptor were 22.1 nM and 248 nM, respectively.

`Cc1cc2c(ccc(=O)n2Cc2ccc(-c3cc(C)sc3S(=O)(=O)Nc3noc(C)c3C)c(OCC(C)C)c2)c(C)n1` [Example 36, 3-[4-(5,7-Dimethyl-2-oxo-2H-[1,6]naphthyridin-1-ylmethyl)-2-isobutoxy-phenyl]-5-methyl-thiophene-2-sulfonic acid (4,5-dimethyl-isoxazol-3-yl)-amide]: the concentration for half-maximal inhibition (IC50) is 58.3 nM at human AT1 receptor and 758 nM at human ETA receptor.

As to `CCOCc1cc(Cn2nc(Cn3nc(C)cc3C)c3c(C)nc(C)cc32)ccc1-c1cc(C)sc1S(=O)(=O)Nc1noc(C)c1C` [Example 15, 3-{4-[3-(3,5-Dimethyl-pyrazol-1-ylmethyl)-4,6-dimethyl-pyrazolo[4,3-c]pyridin-1-ylmethyl]2-ethoxymethyl-phenyl}-5-methyl-thiophene-2-sulphonic acid (4,5-dimethyl-isoxazol-3-yl)-amide], the IC50 turned out to be 11.4 nM at human AT1 receptor and 503 nM at human ETA receptor.

Consider `CCOc1nc2cccc(C(=O)O)c2n1Cc1ccc(-c2cc(C)sc2S(=O)(=O)Nc2onc(C)c2C)cc1` [Example 26, 3-{4-[2-(3,4-dimethyl-isoxazol-5-ylsulfamoyl)-5-methyl-thiophen-3-yl]-benzyl}-2-ethoxy-3H-benzoimidazole-4-carboxylic acid], for which the IC50 was 117 nM on human AT1 receptor and 18900 nM at human ETA receptor.

In the case of `CCOCc1cc(Cn2nc(-c3cccs3)c3c(C)nc(CC)cc32)ccc1-c1cc(C)sc1S(=O)(=O)Nc1onc(C)c1C` [Example 27, 3-[2-Ethoxymethyl-4-(6-ethyl-4-methyl-3-thiophen-2-yl-pyrazolo[4,3-c]pyridin-1-ylmethyl)-phenyl]-5-methyl-thiophene-2-sulfonic acid (3,4-dimethyl-isoxazol-5-yl)-amide], the IC50 turned out to be 15.6 nM on human AT1 receptor and 646 nM at human ETA receptor.

On to `CCc1nc(C)cc2c1c(CC)nn2Cc1ccc(-c2cc(C)sc2S(=O)(=O)Nc2noc(C)c2C)c(COC)c1` [Example 38, 3-[4-(3,4-Diethyl-6-methyl-pyrazolo[4,3-c]pyridin-1-ylmethyl)-2-methoxymethyl-phenyl]-5-methyl-thiophene-2-sulfonic acid (4,5-dimethyl-isoxazol-3-yl)-amide], for which the 50% inhibitory concentration (IC50) at human AT1 receptor amounted to 17.2 nM; at human ETA receptor, 1040 nM.

Consider `CCOc1cc(=O)n(Cc2ccc(-c3cc(C)sc3S(=O)(=O)Nc3noc(C)c3C)c(C)c2)c2cc(CC)nc(CC)c12` [Example 39, 3-[4-(4-Ethoxy-5,7-diethyl-2-oxo-2H-[1,6]naphthyridin-1-ylmethyl)-2-methyl-phenyl]-5-methyl-thiophene-2-sulfonic acid (4,5-dimethyl-isoxazol-3-yl)-amide], for which the half-inhibitory concentration (IC50) at human AT1 receptor worked out at 25.1 nM; on human ETA receptor it was 781 nM.
